ChEMBL document CHEMBL1949591, “Reversal of multidrug resistance by morning glory resin glycosides in human breast cancer cells” (J Nat Prod, 2012)
≈ marks a conversion by molar mass, not a printed value.

Key:
MCF7 [1] = test: Cytotoxicity against vinblastine-resistant human MCF7 cells after 72 hrs by SRB assay; type: functional, cell-based; details: MCF7, 72 h
MCF7 [2] = test: Reversal of p-glycoprotein-mediated drug resistant in human MCF7 cells grown in vinblastine-free medium assessed as ratio of IC50 for vinblastin to IC50 for vinblastin in presence of compound at 25 ug/ml after 72 hrs by SRB assay; type: cell-based
MCF7 [3] = test: Reversal of p-glycoprotein-mediated drug resistant in vinblastine-sensitive human MCF7 cells assessed as ratio of IC50 for vinblastin to IC50 for vinblastin in presence of compound at 25 ug/ml after 72 hrs by SRB assay; type: cell-based
MCF7 [4] = test: Reversal of p-glycoprotein-mediated drug resistant in vinblastine-resistant human MCF7 cells assessed as ratio of IC50 for vinblastin to IC50 for vinblastin in presence of compound at 25 ug/ml after 72 hrs by SRB assay; type: cell-based
[5] = molecular target: T1, ATP-dependent translocase ABCB1 (Homo sapiens, UniProt P08183); test: Inhibition of p-glycoprotein in vinblastine-sensitive human MCF7 cells assessed as decrease in rhodamine 123 accumulation at 25 ug/ml after 30 mins by flow cytometry; type: cell-based; details: mcf7, 0.5 h
[6] = molecular target: T1, ATP-dependent translocase ABCB1; test: Inhibition of p-glycoprotein in vinblastine-sensitive human MCF7 cells assessed as decrease in rhodamine 123 accumulation at 25 ug/ml after 30 mins followed by washout measured after […] by flow cytometry; type: cell-based; details: mcf7, 0.5 h
MCF7 [7] = test: Inhibition of p-glycoprotein expression in vinblastine-sensitive human MCF7 cells at 25 ug/ml after 24 hrs by immunofluorescence flow cytometry relative to control; type: functional; details: MCF7, 24 h
[8] = molecular target: T1, ATP-dependent translocase ABCB1; test: Inhibition of p-glycoprotein in vinblastine-sensitive human MCF7 cells assessed as decrease in rhodamine 123 accumulation at 5 ug/ml after 30 mins by flow cytometry; type: cell-based; details: mcf7, 0.5 h
MCF7 [9] = test: Inhibition of p-glycoprotein expression in vinblastine-sensitive human MCF7 cells at 5 ug/ml after 24 hrs by immunofluorescence flow cytometry relative to control; type: functional; details: MCF7, 24 h

T1 sequence (P08183 whole entry): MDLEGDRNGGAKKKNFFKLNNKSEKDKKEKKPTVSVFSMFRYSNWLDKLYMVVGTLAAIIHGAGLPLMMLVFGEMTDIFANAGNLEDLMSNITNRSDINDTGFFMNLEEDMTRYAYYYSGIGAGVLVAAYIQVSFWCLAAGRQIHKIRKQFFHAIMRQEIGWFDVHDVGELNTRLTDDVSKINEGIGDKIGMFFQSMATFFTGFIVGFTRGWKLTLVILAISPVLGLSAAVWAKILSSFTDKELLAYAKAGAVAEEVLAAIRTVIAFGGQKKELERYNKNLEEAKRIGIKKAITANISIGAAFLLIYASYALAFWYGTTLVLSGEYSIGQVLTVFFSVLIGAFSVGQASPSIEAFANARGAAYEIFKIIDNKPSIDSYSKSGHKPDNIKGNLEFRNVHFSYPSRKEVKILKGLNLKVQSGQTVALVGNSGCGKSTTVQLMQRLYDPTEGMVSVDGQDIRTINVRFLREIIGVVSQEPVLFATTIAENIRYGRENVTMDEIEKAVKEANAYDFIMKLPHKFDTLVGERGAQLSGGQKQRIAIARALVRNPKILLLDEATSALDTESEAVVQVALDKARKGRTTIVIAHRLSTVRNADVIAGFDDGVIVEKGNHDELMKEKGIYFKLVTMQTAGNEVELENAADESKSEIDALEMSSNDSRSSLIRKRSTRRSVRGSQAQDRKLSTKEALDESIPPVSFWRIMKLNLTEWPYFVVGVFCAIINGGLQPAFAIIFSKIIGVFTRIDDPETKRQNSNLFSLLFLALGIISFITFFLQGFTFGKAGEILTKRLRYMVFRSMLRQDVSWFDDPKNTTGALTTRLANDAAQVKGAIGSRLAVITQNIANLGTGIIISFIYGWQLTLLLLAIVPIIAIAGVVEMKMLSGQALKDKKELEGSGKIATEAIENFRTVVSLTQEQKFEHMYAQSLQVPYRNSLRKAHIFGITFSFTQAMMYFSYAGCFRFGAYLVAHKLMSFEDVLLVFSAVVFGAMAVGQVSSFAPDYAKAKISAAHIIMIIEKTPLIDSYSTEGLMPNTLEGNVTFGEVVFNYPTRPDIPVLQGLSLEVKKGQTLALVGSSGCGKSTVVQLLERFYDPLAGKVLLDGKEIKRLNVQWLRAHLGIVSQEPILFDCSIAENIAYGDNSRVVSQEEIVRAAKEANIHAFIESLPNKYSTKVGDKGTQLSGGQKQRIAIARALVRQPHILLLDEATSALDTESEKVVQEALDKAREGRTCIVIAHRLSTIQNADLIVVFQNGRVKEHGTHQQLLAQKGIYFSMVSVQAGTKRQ

| Structure (SMILES) | IC50 (MCF7 [1]) | Ratio IC50 (MCF7 [2]) | Ratio IC50 (MCF7 [3]) | Ratio IC50 (MCF7 [4]) | other results |
| --- | --- | --- | --- | --- | --- |
| C/C=C(\C)C(=O)O[C@H]1[C@H](O)[C@@H](O)[C@H](O[C@@H]2[C@H]3OC(=O)CCCCCCCCC[C@H](CCCCC)O[C@@H]4O[C@H](C)[C@@H](O)[C@H](O)[C@H]4O[C@@H]4O[C@H](COC(=O)[C@@H](C)CC)[C@@H](O)[C@H](O)[C@H]4O[C@H](O[C@H]2C)[C@@H]3OC(=O)[C@H](C)[C@@H](C)O)O[C@@H]1C [ORIZABIN XIV] | 1.5 µg/mL (≈ 1.34 µM) |  |  |  |  |
| CCCCC[C@H]1CCCCCCCCCC(=O)O[C@H]2[C@H](O[C@H]3[C@H](O1)O[C@H](C)[C@H](O)[C@@H]3O)O[C@@H](C)[C@H](O[C@@H]1O[C@@H](C)[C@H](O[C@@H]3O[C@@H](C)[C@H](OC(=O)[C@@H](C)CC)[C@@H](O)[C@H]3O)[C@@H](O[C@@H]3O[C@H](CO)[C@@H](O)[C@H](O)[C@H]3O)[C@H]1OC(=O)[C@@H](C)CC)[C@H]2O |  | > 1590 | > 73.4 | > 1910 |  |
| C/C=C(\C)C(=O)O[C@H]1[C@H](O)[C@@H](O)[C@H](O[C@@H]2[C@H]3OC(=O)CCCCCCCCC[C@H](CCCCC)O[C@@H]4O[C@H](C)[C@@H](O)[C@H](O)[C@H]4O[C@@H]4O[C@H](COC(=O)C(C)C)[C@@H](O)[C@H](O)[C@H]4O[C@H](O[C@H]2C)[C@@H]3OC(=O)[C@H](C)[C@@H](C)O)O[C@@H]1C [ORIZABIN X] | 1.5 µg/mL (≈ 1.35 µM) |  |  |  |  |
| CCCCC[C@H]1CCCCCCCCCC(=O)O[C@H]2[C@@H](O)[C@H](O[C@H]3[C@H](O1)O[C@H](C)[C@H](O)[C@@H]3O)O[C@@H](C)[C@@H]2O[C@@H]1O[C@@H](C)[C@H](O[C@@H]2O[C@@H](C)[C@H](OC(=O)[C@@H](C)CC)[C@@H](O)[C@H]2O)[C@@H](O[C@@H]2O[C@H](CO)[C@@H](O)[C@H](O)[C@H]2O)[C@H]1OC(=O)[C@@H](C)CC [MURUCOIDIN V] |  | 255 | 47 | 7.8 | inhibition (INH) [5]: Active; inhibition (INH) [6]: Active; inhibition at 25 µg/mL (MCF7 [7]): 30% |
| CCCCC[C@H]1CCCCCCCCCC(=O)O[C@@H]2[C@@H](O[C@@H]3O[C@H](C)[C@@H](OC(=O)[C@@H](C)CC)[C@H](O)[C@H]3O)[C@H](C)O[C@@H](O[C@H]3[C@H](O[C@H]4[C@H](O1)O[C@H](C)[C@@H](O)[C@@H]4O)O[C@H](COC(=O)[C@H](C)[C@@H](C)O)[C@@H](O)[C@@H]3O)[C@@H]2OC(=O)[C@@H](C)CC [ORIZABIN XX] | 1.5 µg/mL (≈ 1.34 µM) |  |  |  |  |
| CCCCC[C@H]1CCCCCCCCCC(=O)O[C@@H]2[C@@H](O[C@@H]3O[C@H](C)[C@@H](OC(=O)[C@@H](C)CC)[C@H](O)[C@H]3O)[C@H](C)O[C@@H](O[C@H]3[C@H](O[C@H]4[C@H](O1)O[C@H](C)[C@@H](O)[C@@H]4O)O[C@H](COC(=O)[C@@H](C)[C@H](C)O)[C@@H](O)[C@@H]3O)[C@@H]2OC(=O)[C@@H](C)CC [ORIZABIN XXI] | 1.5 µg/mL (≈ 1.34 µM) |  |  |  |  |
| C/C=C(\C)C(=O)O[C@H]1[C@H](O)[C@@H](O)[C@H](O[C@@H]2[C@H]3OC(=O)CCCCCCCCC[C@H](CCCCC)O[C@@H]4O[C@H](C)[C@@H](O)[C@H](O)[C@H]4O[C@@H]4O[C@H](COC(=O)C(C)C)[C@@H](O)[C@H](O)[C@H]4O[C@H](O[C@H]2C)[C@@H]3OC(=O)[C@@H](C)[C@H](C)O)O[C@@H]1C [ORIZABIN XI] | 1.5 µg/mL (≈ 1.35 µM) |  |  |  |  |
| CCCCC[C@H]1CCCCCCCCCC(=O)O[C@H]2[C@H](O)[C@@H](CO)O[C@@H](O[C@H]3[C@H](O1)O[C@H](C)[C@H](O)[C@@H]3O)[C@@H]2O[C@@H]1O[C@@H](C)[C@H](OC(=O)[C@@H](C)CC)[C@@H](O[C@@H]2O[C@@H](C)[C@H](O)[C@@H](O)[C@H]2O)[C@H]1OC(=O)[C@@H](C)CC |  | > 1590 | 47 | > 1910 |  |
| CCCCC[C@H]1CCCCCCCCCC(=O)O[C@H]2[C@H](O[C@H]3[C@H](O1)O[C@H](CO)[C@@H](O)[C@@H]3O)O[C@@H](C)[C@H](O[C@@H]1O[C@@H](C)[C@H](O[C@@H]3O[C@@H](C)[C@H](OC(=O)[C@@H](C)CC)[C@@H](O)[C@H]3O)[C@@H](O[C@@H]3O[C@@H](C)[C@H](O)[C@@H](O)[C@H]3O)[C@H]1OC(=O)[C@@H](C)CC)[C@H]2O |  | > 1590 | > 73.4 | > 1910 |  |
| C/C=C(\C)C(=O)O[C@H]1[C@H](O)[C@@H](O)[C@H](O[C@@H]2[C@H]3OC(=O)CCCCCCCCC[C@H](CCCCC)O[C@@H]4O[C@H](C)[C@@H](O)[C@H](O)[C@H]4O[C@@H]4O[C@H](COC(=O)[C@@H](C)[C@H](C)O)[C@@H](O)[C@H](O)[C@H]4O[C@H](O[C@H]2C)[C@@H]3OC(=O)[C@@H](C)CC)O[C@@H]1C [ORIZABIN XVII] | 1.5 µg/mL (≈ 1.34 µM) |  |  |  |  |
| CCCCC[C@H]1CCCCCCCCCC(=O)O[C@H]2[C@H](O[C@H]3[C@H](O1)O[C@H](C)[C@H](O)[C@@H]3O)O[C@@H](C)[C@H](O[C@@H]1O[C@@H](C)[C@H](O[C@@H]3O[C@@H](C)[C@H](OC(=O)[C@@H](C)CC)[C@@H](O)[C@H]3O)[C@@H](OC(=O)[C@@H](C)CC)[C@H]1O)[C@H]2O |  | > 1590 | > 73.4 | > 1910 |  |
| C/C=C(\C)C(=O)O[C@H]1[C@H](O)[C@@H](O)[C@H](O[C@@H]2[C@H]3OC(=O)CCCCCCCCC[C@H](CCCCC)O[C@@H]4O[C@H](C)[C@@H](O)[C@H](O)[C@H]4O[C@@H]4O[C@H](COC(=O)[C@H](C)[C@@H](C)O)[C@@H](O)[C@H](O)[C@H]4O[C@H](O[C@H]2C)[C@@H]3OC(=O)[C@@H](C)CC)O[C@@H]1C [ORIZABIN XVI] | 1.5 µg/mL (≈ 1.34 µM) |  |  |  |  |
| COC(=O)[C@H]1[C@H]2C[C@@H]3c4[nH]c5cc(OC)ccc5c4CCN3C[C@H]2C[C@@H](OC(=O)c2cc(OC)c(OC)c(OC)c2)[C@@H]1OC [RESERPINE] |  |  |  |  | inhibition (INH) [8]: Active; inhibition at 5 µg/mL (MCF7 [9]): 38% |
